# How the values were obtained:
# in vivo = experiment: in vivo; set-up: species or system white mice; details: white mice
# [1] = Therapeutic effect on Strophanthin G arrhythmia in rabbits; format: in vivo
# Description: To investigate the therapeutic effect of the preparation according to the present invention relative to the Strophanthin arrhythmia, another series of experiments was carried out. Strophanthin was intravenously administered to rabbits of both sexes with a mass of 3.0 to 3.8 kg at a general dose of 80 μg/kg which caused arrhythmia within 40-60 minutes. The test preparation was intravenously administered at the background of arrhythmia in the test group.
# After the administration of the preparation at a dose of 5 mg/kg the regular synusal rhythm was retained for 12±5 minutes on the average, whereafter arrhythmia was gradually renewed, but it could be again eliminated by a repeated administration of the preparation at a dose of 2-5 mg/kg. In such cases the sinusal rhythm was retained for 15 to 30 minutes and in the majority of tests arrhythmia never renewed. Furthermore, an experiment was carried out on narcotized guinea pigs with a mass of 600-710 g to which Strophanthin -K was administered into the femoral vein at a total dose of 500 μg/kg.
# [2] = Arterial pressure, respiration and responses to biogenic amines in narcotized cats; format: in vivo
# Description: The study of the preparation according to the present invention for arterial pressure, breathing and hemodynamic effects of norepinephrine, neoepinephrine, novoepinephrine, acetylcholine and histamine was carried out in experiments on cats with a mass of 2.8 to 4.0 kg narcotized by chlorase. There were then recorded the animals' arterial pressure, respiration and ECG on a physiograph produced by Narco Bio-Systems Co.
# [3] = Embryotoxic and teratogenic effects in rats; format: in vivo, white rats; details: up to 10,000 mg/kg perorally, any day of pregnancy
# fruit flies = experiment: Mutagenous activity on fruit flies; format: in vivo; details: dihydrate
# [4] = Storage stability of pharmaceutical preparations; format: physicochemical
# [5] = Physicochemical properties of the dihydrate (solubility, stability, hygroscopicity)
compound,measurement,setting,value
"C[N+](C)(C)NCCC(=O)[O-] [3-(2,2,2-trimethylhydrazinium)propionate]",LD50,"in vivo; mouse, in vivo, intravenous (Table 2)",4430 mg/kg
same,"Acute toxicity, LD50",in vivo; intravenous (Table 5),"4,430 mg/kg"
same,Duration regular sinus rhythm was retained,"[1]; 5 mg/kg, average",12 ± 5 min
same,Time to arrest of ventricular tachyarrhythmia,[1]; 1 to 3 mg/kg intravenous,1 to 2 min
same,Effect on ventricular tachyarrhythmia,"[1]; 1 to 3 mg/kg intravenous, majority of tests",temporarily arrested ventricular tachyarrhythmia
same,Changes in the complex QRST,[1]; intravenous,reduced
same,Duration sinusal rhythm was retained after repeated administration,"[1]; repeated administration, 2-5 mg/kg",15 to 30 min
same,"Change in arterial pressure, pulse frequency and respiration",[2]; 0.5 to 2.0 mg/kg intravenous,"did not result in any essential change in arterial pressure, pulse frequency and respiration"
same,Level of responses to biogenic amines,[2]; 0.5 to 2.0 mg/kg intravenous,did not change changed the level of responses to biogenic amines
same,Change in response to acetyl choline,[2]; 15-25 mg/kg,10-15%
same,Change in response to neoepinephrine,[2]; 15-25 mg/kg,5-10%
same,Increase of the response to histamine,[2]; 15-25 mg/kg,5-10%
same,Short-time reduction of arterial pressure,[2]; 15-25 mg/kg,5-20 mm Hg
same,Duration of increase of arterial pressure,"[2]; 15-25 mg/kg, some cases",5 to 12 min
same,Increase of arterial pressure vs initial value,"[2]; 15-25 mg/kg, some cases",5-10 mm Hg
same,Blood pressure or response to biogenic amines,[2]; further increase of dose,did not cause changes in blood pressure or response to the administration of biogenic amines
same,Embryotoxic or teratogenic effects,[3],no embryotoxic or teratogenic effects
same,Mutagenous activity,fruit flies,does not have mutagenous activity
same,Stability in storage,[4]; +5° C.,stable in storage at a temperature of +5 °C for at least two years
same,Stability of pharmaceutical forms for peroral administration,[4]; room temperature,stable for two years at room temperature
same,Hygroscopicity,[5]; dihydrate,slightly hygroscopic
same,Solubility in hot ethanol and methanol,[5]; dihydrate,well soluble
same,Solubility in nonpolar solvents,[5]; dihydrate,insoluble
same,Solubility in water,[5]; dihydrate,well soluble
same,Storage stability,"[5]; dihydrate, closed area, room temperature",2 years
same,Thermal stability,[5]; heating above 40° C.,loses crystallization water and slowly decomposes

# From patent publication US4451485A, “Treatment of cardio-vascular diseases with 3-(2,2,2-trimethylhydrazinium) propionate dihydrate” (Institu Organicheskogo Sinteza Akademii Nauk Latviiskoi SSR, priority 1981, dated 1984)
